pEC50, pIC50: −log10 of the molar value. “And” between values parts separate entries of the source, which are not always exact repeats. Equal values may be shown once. Read-outs that look alike come from different tables or passages of the source.
Tests used:
[1] = system: isolated urinary bladder of winter flounder (PVCR; thiazide-sensitive NaCl cotransporter); assay: Water reabsorption (Jv) in isolated winter flounder urinary bladder, gravimetric; type: cell-based, winter flounder (Pseudopleuronectes americanus); settings: for water reabsorption (Jv): control Jv 130±28; for inhibition of water reabsorption: application of agent, concentration not stated (summary); for pIC50: read-out: half maximal inhibitory concentration for urinary bladder Jv (IC50); for reversibility of inhibitory effect on Jv: upon removal of agonist
Method: To provide further evidence linking Aquatic PVCRs to fish osmoregulation, isolated urinary bladder of winter founder was used to investigate whether PVCRs modulate epithelial cell ion transport. […] Water reabsorption from the urine stored in urinary bladder allows for the concentrations of both Mg^2+ and Ca^2+ to increase to values as high as 84 mM and 7 mM respectively in marine founders (Elger, E. B., et al., J. Como. Physiol., B157:21 (1987)). 5 Net apical to basolateral water flux (Jv) was measured gravimetrically in 10 minute intervals using individual urinary bladder excised from winter flounder. […] The weight of the bladder was measured before and after the experimental period, wherein the experimental period comprised the period of time that the isolated bladder was exposed to test compound. The compound to be tested (e.g., test compound) was added to both serosal and mucosal solutions. The bladders were dried and weighted as described in Renfro et al. The difference in bladder weight prior to and after exposure to test compound is an indication of water reabsorption by the bladder.
Endocrinol. 127:1064–1071 (1990). […]

[2] = molecular target: T1, mammalian CaRs (Bos taurus, UniProt P35384); settings: literature value; cited from earlier work
T1 sequence (P35384 20-1085): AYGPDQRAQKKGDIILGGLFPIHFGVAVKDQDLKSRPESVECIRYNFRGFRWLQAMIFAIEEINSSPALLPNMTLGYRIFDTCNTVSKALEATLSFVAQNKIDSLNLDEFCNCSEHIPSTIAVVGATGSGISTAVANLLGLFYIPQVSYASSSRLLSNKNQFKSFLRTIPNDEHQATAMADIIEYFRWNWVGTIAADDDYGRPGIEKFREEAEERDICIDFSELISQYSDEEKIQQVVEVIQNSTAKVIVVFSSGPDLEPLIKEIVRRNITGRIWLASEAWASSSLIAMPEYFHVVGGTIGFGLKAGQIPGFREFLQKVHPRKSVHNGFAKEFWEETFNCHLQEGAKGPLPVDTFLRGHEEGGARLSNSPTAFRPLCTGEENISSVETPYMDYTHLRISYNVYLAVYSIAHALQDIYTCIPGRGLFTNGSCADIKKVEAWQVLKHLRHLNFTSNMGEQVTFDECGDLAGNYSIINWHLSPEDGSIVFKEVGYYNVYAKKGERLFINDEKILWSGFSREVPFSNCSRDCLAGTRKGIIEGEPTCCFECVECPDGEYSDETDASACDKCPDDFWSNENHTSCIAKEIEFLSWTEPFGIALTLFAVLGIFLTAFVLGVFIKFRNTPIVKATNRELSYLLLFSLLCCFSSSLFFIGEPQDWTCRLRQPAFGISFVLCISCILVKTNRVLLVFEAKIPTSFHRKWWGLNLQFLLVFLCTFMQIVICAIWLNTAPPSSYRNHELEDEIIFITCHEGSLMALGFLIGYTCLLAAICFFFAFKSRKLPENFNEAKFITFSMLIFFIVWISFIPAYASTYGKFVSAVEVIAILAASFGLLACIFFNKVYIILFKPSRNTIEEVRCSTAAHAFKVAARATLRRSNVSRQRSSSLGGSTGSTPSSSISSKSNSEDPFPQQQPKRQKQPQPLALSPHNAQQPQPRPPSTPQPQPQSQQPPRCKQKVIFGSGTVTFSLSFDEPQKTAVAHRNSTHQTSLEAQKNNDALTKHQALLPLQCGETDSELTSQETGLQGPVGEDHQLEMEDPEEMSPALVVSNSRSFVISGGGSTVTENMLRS

[3] = system: SKCaR (SEQ ID NO.: 2); assay: FURA 2 intracellular calcium assay of SKCaR activation in transfected HEK cells; type: cell-based, dogfish shark (Squalus acanthias)
Source text: SKCaR cDNA (SEQ ID NO.: 1) was ligated into the mammalian expression vector PCDNA II and transfected into HEK cells using standard techniques. The presence of SKCaR protein (SEQ ID NO.: 2) in transfected cells was verified by western blotting. Activation of SKCaR (SEQ ID NO.: 2) by extracellular Ca2+, Mg2+ or NaCl was quantified using a well characterized FURA 2 based assay where increases in intracellular Ca2+ produced by SKCaR activation are detected using methodology published previously the Dr. E. Brown's laboratory (Bai, M., S. Quinn, S. Trvedi, O. Kifor, S. H. S. Pearce, M. R. Pollack, K. Krapcho, S. C. Hebert and E. M. Brown. Expression and characterization of inactivating and activating mutations in the human Ca2+-sensing receptor. J. Biol. Chem., 32:19537–19545 (1996)) and expressed as % normalized intracellular calcium response to receptor activation.

[4] = extracellular NaCl 50 mM, read-out: EC50 for activation of SKCaR
[5] = extracellular NaCl 550 mM, read-out: EC50 for activation of SKCaR

| Compound | inhibition of water reabsorption [1] | pIC50 [1] | reversibility of inhibitory effect on Jv [1] | pEC50 [3, 4] | pEC50 [3, 5] | inhibition of water reabsorption (Jv) ([1]; 100 μM agent) | water reabsorption (Jv) ([1]; 100 μM agent) | further results |
| --- | --- | --- | --- | --- | --- | --- | --- | --- |
| neomycin | > 50% | 3.82 | reversible | – | – | – | – | inhibition of water reabsorption (Jv) ([1]; 200 μM agent): 52±4%; water reabsorption (Jv) ([1]; 200 μM agent): 63±10 μl/gm/hr; pIC50 [2]: 4.30 and 4.15 to 4.22 |
| [Cl-].[Na+] [NaCl] | – | – | – | – | – | – | – | effect on sensitivity of SKCaR to Ca2+ ([3]; increasing concentrations of NaCl): reduce the sensitivity |
| [Ca+2] [Ca2+, calcium] | – | – | – | > 2.30 | ~1.74 | – | – | effect on sensitivity of SKCaR to Mg2+ ([3]; addition of 3 mM Ca2+, as a function of extracellular NaCl): increases the sensitivity; pEC50 ([3]; depending on the extracellular concentration of NaCl, read-out: half maximal activation of SKCaR): 1.82 to 3.00 |
| NS(=O)(=O)c1cc2c(cc1Cl)NCNS2(=O)=O [hydrochlorothiazide] | > 85% | – | – | – | – | 86±2% | 18±7 μl/gm/hr | – |
| [Gd+3] [Gd^3+, gadolinium] | > 90% | 4.82 | reversible | – | – | 75±5% | 32±18 μl/gm/hr | – |
| [Mg+2] [Mg2+, magnesium] | – | – | – | > 1.70 | ~1.10 | – | – | concentration range in which SKCaR is activated ([3]; modulated by extracellular NaCl): 5 to 40 mM |
